The assay addresses T1, human CXCR6 (Homo sapiens, UniProt O00574).
T1 construct: expressed in transfected cells
The experiment in a line: Radioligand Binding Assay (125I-CXCL16 displacement). The following applies: L1.2 cells stably transfected with human CXCR6 cDNA, 0.1 nM 125I-CXCL16, 4° C., three-hour incubation; read-out: Potency (IC50). Put shortly:
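L1.2 cells stably expressing human CXCR6 incubated 3 h at 4 °C in HBSS/0.1% BSA with 0.1 nM 125I-CXCL16 and graded compound concentrations. Bound radioactivity collected by filtration and counted; IC50 from 3-parameter nonlinear regression.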

In patent US20230339851A1, “CXCR6 SULFONAMIDE COMPOUNDS” (CHEMOCENTRYX, INC., priority 2022, published 2023) one finds IC50 data, which are given here for 65 compounds.

Where only a bound is given, the exact number is not on record here.

What is called IC50 is the concentration needed to halve the response being measured.

T1 sequence (O00574 whole entry): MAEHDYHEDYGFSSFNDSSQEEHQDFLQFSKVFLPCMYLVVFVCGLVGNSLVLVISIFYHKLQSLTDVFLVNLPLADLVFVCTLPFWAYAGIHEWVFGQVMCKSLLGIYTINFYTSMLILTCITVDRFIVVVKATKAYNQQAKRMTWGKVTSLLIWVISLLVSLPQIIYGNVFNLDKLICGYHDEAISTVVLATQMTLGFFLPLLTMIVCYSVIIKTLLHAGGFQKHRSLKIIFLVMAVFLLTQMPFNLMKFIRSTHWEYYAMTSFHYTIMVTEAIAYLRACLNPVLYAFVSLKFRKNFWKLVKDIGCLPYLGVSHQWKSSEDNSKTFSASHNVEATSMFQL

For the compound `CCOc1cc(NC(=O)C(C)C(O)C2CC3C=CC2C3)ccc1S(=O)(=O)Nc1cccc(OC(F)(F)F)c1` (centres unmarked) [Example 1.517], the IC50 was in the range of 200 to 750 nM.
The figure for `CCOc1cc(NC(=O)C2CC3CCC2O3)ccc1S(=O)(=O)Nc1cccc(OC(F)(F)F)c1` (centres unmarked) [Example 1.061] is no more than 200 nM.
With `COc1cc(NC(=O)[C@@H](O)c2ccccc2)ccc1S(=O)(=O)Nc1cccc(OC(F)(F)F)c1` [Example 1.129], the IC50 is no more than 200 nM.
With `COc1cc(NC(=O)c2ccnn2C)ccc1S(=O)(=O)Nc1cccc(C(C)(C)C)c1` [Example 1.231], the IC50 lay in the range of 200 to 750 nM.
The same measure for `CCOc1cc(NC(=O)[C@@H](O)C(C)C)ccc1S(=O)(=O)Nc1cccc(C2CC2)c1` [Example 1.308]: no more than 200 nM; for `CCOc1cc(NC(=O)c2cc[nH]c(=O)c2)ccc1S(=O)(=O)Nc1cccc(OC(F)(F)F)c1` [Example 1.103]: no more than 200 nM; for `CCOc1cc(NC(=O)[C@@H](O)C(C)C)ccc1S(=O)(=O)Nc1ccc(C)c(OC(F)(F)F)c1` [Example 1.205]: no more than 200 nM.
The figure for `COc1cc(NC(=O)c2ccnn2C)ccc1S(=O)(=O)Nc1cccc(N(C)C)c1` [Example 1.337] is 750 to 2000 nM; for `CCOc1cc(NC(=O)[C@H]2CCOC[C@H]2CC)ccc1S(=O)(=O)Nc1cccc(OC(F)(F)F)c1` (racemic) [Example 1.233] it is no more than 200 nM.
For `COc1cc(NC(=O)[C@@H](CO)c2ccccc2)ccc1S(=O)(=O)Nc1cccc(OC(F)(F)F)c1` [Example 1.235], the IC50 fell in the range of 200 to 750 nM.
As to `CCCc1cc(C(=O)Nc2ccc(S(=O)(=O)Nc3cccc(C(F)(F)F)c3)c(OC)c2)n(C)n1` [Example 1.578], the half-inhibitory concentration (IC50) lay in the range of 750 to 2000 nM.
`CCOc1cc(NC(=O)[C@@H](O)C(C)C)ccc1S(=O)(=O)Nc1ccc(C)c(Cl)c1` [Example 1.368]: the IC50 is no more than 200 nM.
The figure for `Cc1cc(NC(=O)[C@@H](CO)C(C)C)ccc1S(=O)(=O)Nc1cccc(OC(F)(F)F)c1` [Example 1.174] is no more than 200 nM; for `CCOc1cc(NC(=O)[C@@H](O)Cc2ccccc2)ccc1S(=O)(=O)Nc1cccc(OC(F)(F)F)c1` [Example 1.207] it is no more than 200 nM.
The same measure for `CCOc1cc(NC(=O)CC(O)c2nccn2C)ccc1S(=O)(=O)Nc1cccc(OC(F)(F)F)c1` (centres unmarked) [Example 1.106]: 2000 to 20000 nM; for `CCOC(=O)[C@H]1CC(C)=C(C)C[C@@H]1C(=O)Nc1ccc(S(=O)(=O)Nc2cccc(OC(F)(F)F)c2)c(OCC)c1` [Example 1.291]: 200 to 750 nM; for `CCOc1cc(NC(=O)[C@@H](CO)c2ccccc2)ccc1S(=O)(=O)Nc1ccc(Cl)c(C(F)(F)F)c1` [Example 1.178]: 200 to 750 nM.
The same measure for `N#Cc1cc(NC(=O)[C@@H](CO)c2ccccc2)ccc1S(=O)(=O)Nc1cccc(OC(F)(F)F)c1` [Example 1.024]: no more than 200 nM.
In the case of `Cc1cc(NC(=O)c2ccncc2)ccc1S(=O)(=O)Nc1cccc(C(F)(F)F)c1` [Example 1.524], the IC50 lay within 200 to 750 nM.
Regarding `CCOc1cc(NC(=O)[C@@H](O)C(C)C)ccc1S(=O)(=O)Nc1cccc(C(C)(C)C)c1` [Example 1.277], the IC50 lay within 200 to 750 nM.
The same measure for `COc1cc(NC(=O)[C@H]2CCCNC2)ccc1S(=O)(=O)Nc1cccc(C(F)(F)F)c1` [Example 1.323]: 2000 to 20000 nM; for `COc1cc(NC(=O)c2ccnn2C)ccc1S(=O)(=O)Nc1cccc(OC(F)(F)F)c1` [Example 1.239]: no more than 200 nM; for `CCOc1cc(NC(=O)[C@@H](O)C(C)C)ccc1S(=O)(=O)Nc1cccc(OC(C)C)c1` [Example 1.074]: 200 to 750 nM.
The same measure for `CCOc1cc(NC(=O)[C@@H](NC(C)=O)C(C)CC)ccc1S(=O)(=O)Nc1cccc(OC(F)(F)F)c1` (some centres unmarked) [Example 1.349]: no more than 200 nM; for `CCOc1cc(NC(=O)C(O)C2C=CCC2)ccc1S(=O)(=O)Nc1cccc(OC(F)(F)F)c1` (centres unmarked) [Example 1.031]: no more than 200 nM; for `CC(=O)Nc1ccc(S(=O)(=O)Nc2cccc(C(F)(F)F)c2)c(C)c1` [Example 1.321]: 2000 to 20000 nM.
The figure for `CCOc1cc(NC(=O)[C@@H](O)C(C)C)ccc1S(=O)(=O)Nc1cccc(Cl)c1C(F)(F)F` [Example 1.579] is 2000 to 20000 nM; for `CCOc1cc(NC(=O)[C@@H](CO)C(C)C)ccc1S(=O)(=O)Nc1cccc(Cl)c1C` [Example 1.540] it is 200 to 750 nM; for `COc1cc(NC(=O)c2ccnn2C)ccc1S(=O)(=O)Nc1ccc(C)c(OC(F)(F)F)c1` [Example 1.151] it is no more than 200 nM.
In the case of `CCOc1cc(NC(=O)c2cccnc2)ccc1S(=O)(=O)Nc1cccc(OC(F)(F)F)c1` [Example 1.403], the IC50 is no more than 200 nM.
Turning to `CCc1cc(NC(=O)c2ccnn2C)ccc1S(=O)(=O)Nc1cccc(C(F)(F)F)c1` [Example 1.232], the IC50 is no more than 200 nM.
The figure for `CCOc1cc(NC(=O)[C@@H](CO)c2ccccc2)ccc1S(=O)(=O)Nc1ccc2c(c1)OC(F)(F)O2` [Example 1.121] is 2000 to 20000 nM.
The figure for `CCOc1cc(NC(=O)c2ccnn2C)ccc1S(=O)(=O)Nc1cccc(C(F)(F)F)c1` [Example 1.068] is no more than 200 nM; for `Cc1cc(NC(=O)c2ccns2)ccc1S(=O)(=O)Nc1cccc(C(F)(F)F)c1` [Example 1.346] it is no more than 200 nM; for `COc1cc(NC(=O)c2ccnn2C)ccc1S(=O)(=O)Nc1cc(Cl)cc(C(F)(F)F)c1` [Example 1.011] it is 750 to 2000 nM.
The same measure for `COc1cc(NC(=O)[C@@H]2CCOC[C@H]2C)ccc1S(=O)(=O)Nc1cccc(OC(F)(F)F)c1` (racemic) [Example 1.007]: 200 to 750 nM; for `CCOc1cc(NC(=O)C(CO)c2ccc(F)cc2)ccc1S(=O)(=O)Nc1cccc(OC(F)(F)F)c1` (centres unmarked) [Example 1.204]: no more than 200 nM; for `CCOc1cc(NC(=O)[C@@H](NC(C)=O)C(C)C)ccc1S(=O)(=O)Nc1cccc(C(F)(F)F)c1` [Example 1.507]: no more than 200 nM.
`CCCc1cc(NC(=O)[C@@H](O)C(C)C)ccc1S(=O)(=O)Nc1cccc(OC(F)(F)F)c1` [Example 1.071]: the half-inhibitory concentration (IC50) was no more than 200 nM.
The figure for `Cc1cc(NC(=O)[C@@H]2CCCN2C)ccc1S(=O)(=O)Nc1cccc(C(F)(F)F)c1` [Example 1.422] is 2000 to 20000 nM; for `CCOc1cc(NC(=O)[C@@H](CO)c2ccccc2)ccc1S(=O)(=O)Nc1ccc(Cl)c(C)c1` [Example 1.258] it is 200 to 750 nM.
Turning to `CCOc1cc(NC(=O)[C@@H](N)c2ccccc2)ccc1S(=O)(=O)Nc1cccc(OC(F)(F)F)c1` [Example 1.086], the 50% inhibitory concentration (IC50) was no more than 200 nM.
The same measure for `CCOc1cc(NC(=O)[C@@H](O)C(C)C)ccc1S(=O)(=O)Nc1cccc(C(F)(F)F)c1C` [Example 1.312]: 2000 to 20000 nM; for `COc1cc(NC(=O)[C@@H](CO)C(C)C)ccc1S(=O)(=O)Nc1ccc(C)c(OC(F)(F)F)c1` [Example 1.191]: no more than 200 nM; for `CCOc1cc(NC(=O)[C@@H](O)C(C)C)ccc1S(=O)(=O)Nc1cccc(Cl)c1OC` [Example 1.216]: 2000 to 20000 nM.
The figure for `CCOc1cc(NC(=O)[C@@H](NC(=O)OC(C)(C)C)c2ccccc2)ccc1S(=O)(=O)Nc1cccc(OC(F)(F)F)c1` [Example 1.429] is 200 to 750 nM.
The same measure for `CCOc1cc(NC(=O)[C@@H](CO)c2ccccc2)ccc1S(=O)(=O)Nc1ccc(F)c(OC(F)(F)F)c1` [Example 1.208]: no more than 200 nM; for `CCOc1cc(NC(=O)C(O)C2CCC2)ccc1S(=O)(=O)Nc1cccc(OC(F)(F)F)c1` (centres unmarked) [Example 1.222]: no more than 200 nM; for `CCOc1cc(NC(=O)C2CC=CC[C@H]2O)ccc1S(=O)(=O)Nc1ccc(C)c(OC(F)(F)F)c1` (some centres unmarked) [Example 1.029]: no more than 200 nM.
As for `CCOc1cc(NC(=O)[C@@H](O)C(C)C)ccc1S(=O)(=O)Nc1ccc(C)c(C(C)C)c1` [Example 1.445], the IC50 was no more than 200 nM.
In the case of `CCCc1cc(NC(=O)[C@@H](CO)C(C)C)ccc1S(=O)(=O)Nc1cccc(OC(F)(F)F)c1` [Example 1.311], the IC50 is no more than 200 nM.
On to `CCOc1cc(NC(=O)c2ccns2)ccc1S(=O)(=O)Nc1cccc(C(F)(F)F)c1` [Example 1.567], for which the IC50 is no more than 200 nM.
Regarding `CCOc1cc(NC(=O)[C@@H](CO)C(C)C)ccc1S(=O)(=O)Nc1ccc(C)c(Cl)c1` [Example 1.142], the IC50 is no more than 200 nM.
In the case of `CCOc1cc(NC(=O)[C@@H](CO)C(C)C)ccc1S(=O)(=O)Nc1ccc(F)c(OC(F)(F)F)c1` [Example 1.288], the IC50 was no more than 200 nM.
With `COc1cc(NC(=O)C(C)C2CCCCC2)ccc1S(=O)(=O)Nc1cccc(C(F)(F)F)c1` (centres unmarked) [Example 1.273], the half-inhibitory concentration (IC50) was in the range of 750 to 2000 nM.
The same measure for `COc1cc(NC(=O)C2CC3CCC32O)ccc1S(=O)(=O)Nc1cccc(C(F)(F)F)c1` (centres unmarked) [Example 1.035]: 200 to 750 nM; for `C=C(C)CC(CO)C(=O)Nc1ccc(S(=O)(=O)Nc2cccc(OC(F)(F)F)c2)c(OCC)c1` (centres unmarked) [Example 1.352]: no more than 200 nM; for `Cc1cc(NC(=O)C2CCNCC2)ccc1S(=O)(=O)Nc1cccc(C(F)(F)F)c1` [Example 1.381]: 2000 to 20000 nM.
The figure for `CCc1cc(NC(=O)c2ccns2)ccc1S(=O)(=O)Nc1cccc(C(F)(F)F)c1` [Example 1.225] is 200 to 750 nM; for `CCOc1cc(NC(=O)c2ccc(C)nc2)ccc1S(=O)(=O)Nc1cccc(OC(F)(F)F)c1` [Example 1.149] it is no more than 200 nM.
For `CCOc1cc(NC(=O)[C@@H](CO)C(C)C)ccc1S(=O)(=O)Nc1ccc(Cl)c(OC(F)(F)F)c1` [Example 1.004], the half-inhibitory concentration (IC50) is no more than 200 nM.
With `COc1cc(NC(=O)[C@@H](CO)C(C)C)ccc1S(=O)(=O)Nc1cccc(OC(F)(F)F)c1` [Example 1.009], the half-maximal inhibitory concentration (IC50) was no more than 200 nM.
The figure for `CCc1cc(NC(C)=O)ccc1S(=O)(=O)Nc1cccc(C(F)(F)F)c1` [Example 1.382] is 750 to 2000 nM; for `CCOc1cc(NC(=O)[C@@H](N)C2CCCC2)ccc1S(=O)(=O)Nc1cccc(OC(F)(F)F)c1` [Example 1.463] it is no more than 200 nM.
Consider `COc1cc(NC(=O)c2ccnn2C)ccc1S(=O)(=O)Nc1ccc(F)c(OC(F)(F)F)c1` [Example 1.409], for which the IC50 was no more than 200 nM.
